Test results: US20260021197A1, “NANOPARTICLES AND PEPTIDES FOR THE DELIVERY OF CARGOS TO CHONDROCYTES” (4BASEBIO UK LTD, priority 2022, published 2026)
Each block holds one sequence with its values, some of them ahead of it.

Columns and labels:
[1] = system: primary human chondrocytes; assay: Transfection of primary human chondrocytes, GFP expression by flow cytometry; type: cell-based; conditions: closed linear DNA:lipid:peptide nanoparticles, 48 h post-transfection
Method: (§1) Peptides identified via phage display with affinity toward primary human chondrocytes, and peptides identified in the literature with desirable chondrocyte binding characteristics were synthesised via solid-phase peptide synthetic chemistry in various conformations. A sixteen-lysine tail group was attached using standard synthesis methods (amsbio, UK).
Transfections in primary human chondrocyte cells were performed with a range of peptide:liposome:nucleic acid cargo mass ratios and N/P ratios. Transfections were performed in a 96-well plate at a density of 2000 cells per well seeded 5 days prior to transfection. Charge and mass ratio of components in the transfection complex varied; DNA and mRNA were maintained at a constant mass of 300 ng per well. […] The mass ratio of closed linear DNA:lipid and mRNA:lipid was maintained at 1:3, while the chondrocyte-cell binding peptides were in some cases altered.
(§2) Transfection complexes were formed via electrostatic interaction by vigorous pipetting, before diluting in a final volume of 200 ul per well, with a DNA concentration of 1.5 ng/ul. All dilutions were performed with OptiMEM reduced serum media. Controls included cells with no transfection complexes added (OptiMEM only), along with liposomes encapsulating nucleic acid cargo without peptide.
Transfection complexes were incubated for 30 min at RT before adding to cells. All conditions were performed in triplicate. Cells were incubated at 37° C. for 4 hours, before replacing media with growth media. 48 h post-transfection, the cells were rinsed in PBS, before incubation in 0.05% Trypsin EDTA (Gibco) to detach the cells. 48 h post-transfection, cells were resuspended in PBS for analysis by flow cytometry using the Aligent Novocyte flow cytometer.

[2] = system: primary human chondrocytes; assay: Transfection of primary human chondrocytes, luciferase expression; type: cell-based; conditions: FIG. 3, mRNA:lipid:peptide nanoparticles, DOTMA-DOPE 2:1 + 10% cholesterol, 4 h post-transfection
Method: as §1
Transfections in primary human chondrocyte cells were performed with a range of peptide: liposome:nucleic acid cargo mass ratios and N/P ratios. Transfections were performed in a 96-well plate at a density of 2000 cells per well seeded 5 days prior to transfection. Charge and mass ratio of components in the transfection complex varied; DNA and mRNA were maintained at a constant mass of 300 ng per well. The molar ratio of the cationic lipid DOTMA to the phospholipid DOPE was kept at 2:1 (DD 2:1), while cholesterol was added at a molar percentage of 10% of the total lipid content. The mass ratio of closed linear DNA:lipid and mRNA:lipid was maintained at 1:3, while the chondrocyte-cell binding peptides were in some cases altered.
as §2
Transfection complexes were incubated for 30 min at RT before adding to cells. All conditions were performed in triplicate. Cells were incubated at 37° C. for 4 hours, before replacing media with growth media. 48 h post-transfection for DNA and 4 h post-transfection for RNA, the cells were rinsed in PBS, before resuspension in Reporter Lysis buffer (Promega). Plates were incubated at 4° C. for 20 minutes, before −80° C. for 40 minutes. After thawing, luciferase activity was measured following injection of the luciferase assay substrate on the ClarioSTAR plus plate reader (BMG Labtech, Aylesbury, UK). Luciferase expression was normalised to protein content using Pierce BCA Protein Assay, with absorbance measured at 562 nm. Luciferase activity was expressed as Relative Light Units per mg of protein (RLU/mg).

[3] = Biophysical characterisation of nanoparticles by dynamic light scattering (size, PDI); type: physicochemical
Method: The size in nm by Dynamic Light Scattering (DLS), zeta potential in mV by Electrophoretic Light Scattering (ELS), and concentration of particles per ml by Multi-Angle Dynamic Light Scattering (MADLS) of the closed linear DNA/mRNA-lipid-peptide nanoparticles was determined using the Zetasizer Ultra (Malvern). Complexes were prepared as before, except formulated in nuclease-free water rather than Opti-MEM. Samples containing 0.7 μg hpDNA were diluted in 1 ml for analysis.

[4] = Ribogreen encapsulation efficiency assay; type: physicochemical; conditions: FIG. 4; mRNA:lipid:peptide nanoparticles at N/P ratio 3.98
Method: Encapsulation efficiency (EE %) was measured using Quant-iT™ RiboGreen™ RNA Assay Kit (Invitrogen™, Thermo Fisher Scientific, Waltham, MA, USA). Briefly, mRNA was mixed with RiboGreen™ in a total volume of 100 ul TE buffer (10 mM Tris-HCl, 1 mM EDTA, pH 7.5) per well of a 96-well plate and incubated for 10 minutes at RT in the absence of light. Lipid and peptide components were each diluted in a volume of 50 ul TE buffer before mixing thoroughly with the mRNA-Ribogreen via pipette. Nanocomplexes were incubated for 30 minutes at RT in the absence of light. Encapsulation efficiency was measured by quantifying the fluorescence (λem=520 nm, λex=480 nm) of RNA encapsulated in nanoparticles vs. the fluorescence of naked mRNA complexed with Ribogreen™ reagent using a fluorimeter (ClarioStar, BMG Labtech).

[5] = FIG. 1, DOTMA-DOPE 2:1 + 10% cholesterol
[6] = FIG. 5, closed linear DNA, DOTMA-DOPE 2:1 + 10% cholesterol
[7] = FIG. 6, mRNA, DOTMA-DOPE 2:1 + 10% cholesterol

- luciferase expression ([2]; N/P ratio 3.48): 3.2E+11 RLU/mg protein
- luciferase expression ([2]; N/P ratio 4.48): 4E+11 RLU/mg protein
- luciferase expression ([2]; N/P ratio 7.48): 3.3E+11 RLU/mg protein
- luciferase expression ([2]; N/P ratio 8.48): 2.5E+11 RLU/mg protein
Sequence: KKKKKKKKKKKKKKKKGACDWRVIIPPRPSAC [HC5 C-N]
- GFP expression (% of the cells expressing GFP) [1, 5]: 21%
- median fluorescence intensity (MFI) [1, 5]: 1E+06
- average size by DLS [3, 6]: 100 nm

Sequence: KKKKKKKKKKKKKKKKGACHDSQLEALIKFMC [HC4 C-N]
- Polydispersity Index (PDI) [3, 6]: 0.45

Sequence: KKKKKKKKKKKKKKKKGACRLDPTSYLRTFWC [HC3 C-N]
- GFP expression (% of the cells expressing GFP) [1, 5]: 9%
- median fluorescence intensity (MFI) [1, 5]: 1E+05
- average size by DLS [3, 7]: 78 nm
- Polydisperse Index (PDI) ([3]; FIG. 6 passage, printed as closed linear DNA, DOTMA-DOPE 2:1 10% cholesterol): 0.37

Sequence: KKKKKKKKKKKKKKKKGADWRVIIPPRPSA [HC5 L-N]
- encapsulation efficacy (% of mRNA encapsulated) [4]: 96.86%

Sequence: KKKKKKKKKKKKKKKKGAHDSQLEALIKFM [HC4 L-N]
- average size by DLS [3, 7]: 36.65 nm

Sequence: KKKKKKKKKKKKKKKKGARLDPTSYLRTFW [HC3 L-N]
- Polydispersity Index (PDI) [3, 6]: 0.2
- Polydisperse Index (PDI) [3, 7]: 0.13

Sequence: KKKKKKKKKKKKKKKKRVRRCDWRVIIPPRPSAC [HC5 C-C]
- GFP expression (% of the cells expressing GFP) ([1]; FIG. 2, C16-DOPE 2:1 with 10% cholesterol): 24%
- average size by DLS [3, 6]: 51.37 nm
